# Tested on: p-ERK in PNAC-1/HPAC cell
# Test: Phospho-ERK 1/2 assay (Table 1)
# Type: cell-based
# Settings: Homo sapiens, HPAC, 3 h, read-out: p-ERK IC50, PNAC-1/HPAC cell, 3 hours compound incubation
# Procedure: Allow PNAC-1/HPAC cell growth in a T75 flask in DMEM and 10% 1 fetal calf serum (FCS; Gibco), using standard tissue culture procedures until ˜80% confluency is achieved. Day 1, seed 6000 cells/well in 384 well plate and incubate at 37° C., 5% CO2. Add diluted compound by Echo 550, final DMSO is 0.5%, incubate cells at 37° C., 5% CO2 for 3 hours. Then, remove medium and fix cells with 3.7% formaldehyde in PBS (PFA) by Apricot. Wash with PBS once. Permeabilize cells with cold 100% methanol and repeat wash once with PBS once. Add Li-Cor blocking buffer to each well and incubate 1.5 hours at RT. Remove blocking buffer and add primary antibody mixture (rabbit anti pERK, mouse anti GAPDH). Incubate at 4° C. overnight. Day 2, wash with PBST (Tween-20 in PBS) with total 3 times and then add secondary antibody mixture (goat anti rabbit 800CW (1:800 dilution in the combined solution) and goat anti mouse 680RD (1:800 dilution in the combined solution)), incubate for 60 minutes at RT away from light. Repeat washing with PBST 3 times. After final wash, centrifuge plate up-side-down at 1000 rpm to remove wash solution completely from wells. Before plate scanning, clean the bottom plate surface and the Odyssey* Imager scanning bed (if applicable) with moist, lint-free tissue to avoid any obstructions during scanning. Scan plate with detection in both 700 and 800 nm channels.
row,SMILES,IC50
1,"C#Cc1c(F)ccc2cccc(-c3nc4c5c(nc(OCC67CCCN6C(COC(=O)N(C)C)CC7)nc5c3F)N3CC5CCC(N5)[C@H]3CO4)c12 (stereo in doubt) [Compound 37, (7a-((((5aS,6R,9S)-2-(8-ethynyl-7-fluoronaphthalen-1-yl)-1-fluoro-5a,6,7,8,9,10-hexahydro-5H-4-oxa-3,10a,11,13,14-pentaaza-6,9-methanonaphtho[1,8-ab]heptalen-12-yl)oxy)methyl)hexahydro-1H-pyrrolizin-3-yl)methyl dimethylcarbamate]",50 nM

# Same assay, conditions: Homo sapiens; PNAC-1/HPAC cell, 3 hours compound incubation; read-out: p-ERK IC50
row,SMILES,IC50
1,"C#Cc1c(F)ccc2cccc(-c3nc4c5c(nc(OC[C@@]67CCCN6C[C@H](F)C7)nc5c3F)N3CC5CCC(N5)[C@@H]3CO4)c12 (single isomer, unassigned) [Compound 9]",308 nM
2,"C#Cc1c(F)ccc2cccc(-c3nc4c5c(nc(OC[C@@H]6C[C@@H](F)CN6C)nc5c3F)N3CC5CCC(N5)[C@H]3CO4)c12 (stereo in doubt) [Compound 32, (5aS,6R,9S)-2-(8-ethynyl-7-fluoronaphthalen-1-yl)-1-fluoro-12-(((2S,4R)-4-fluoro-1-methylpyrrolidin-2-yl)methoxy)-5a,6,7,8,9,10-hexahydro-5H-4-oxa-3,10a,11,13,14-pentaaza-6,9-methanonaphtho[1,8-ab]heptalene]",140 nM
3,"C#Cc1c(F)ccc2cccc(-c3nc4c5c(nc(C(=O)N[C@H](C)CN(C)C)nc5c3F)N3CC5CCC(N5)[C@H]3CO4)c12 (stereo in doubt) [Compound 33, (5aS,6R,9S)—N—((R)-1-(dimethylamino)propan-2-yl)-2-(8-ethynyl-7-fluoronaphthalen-1-yl)-1-fluoro-5a,6,7,8,9,10-hexahydro-5H-4-oxa-3,10a,11,13,14-pentaaza-6,9-methanonaphtho[1,8-ab]heptalene-12-carboxamide]",75 nM
4,"[2H]C#Cc1c(F)ccc2cccc(-c3nc4c5c(nc(OC[C@@]67CCCN6C[C@H](F)C7)nc5c3F)N3CC5CCC(N5)[C@H]3CO4)c12 (stereo in doubt) [Compound 34, (5aS,6R,9S)-2-(8-(ethynyl-d)-7-fluoronaphthalen-1-yl)-1-fluoro-12-(((2R,7aS)-2-fluorotetrahydro-1H-pyrrolizin-7a(5H)-yl)methoxy)-5a,6,7,8,9,10-hexahydro-5H-4-oxa-3,10a,11,13,14-pentaaza-6,9-methanonaphtho[1,8-ab]heptalene]",5 nM
5,"C#Cc1c(F)ccc2cccc(-c3nc4c5c(nc(OCC6(CN7CCOC8(CC8)C7)CC6)nc5c3F)N3CC5CCC(N5)[C@H]3CO4)c12 (stereo in doubt) [Compound 46, (5aS,6R,9S)-12-((1-((4-oxa-7-azaspiro[2.5]octan-7-yl)methyl)cyclopropyl)methoxy)-2-(8-ethynyl-7-fluoronaphthalen-1-yl)-1-fluoro-5a,6,7,8,9,10-hexahydro-5H-4-oxa-3,10a,11,13,14-pentaaza-6,9-methanonaphtho[1,8-ab]heptalene]",328 nM
6,"C#Cc1c(F)ccc2cccc(-c3nc4c5c(nc(OCC67CCCN6C(COC(=O)N6CCOCC6)CC7)nc5c3F)N3CC5CCC(N5)[C@H]3CO4)c12 (stereo in doubt) [Compound 47, (7a-((((5aS,6R,9S)-2-(8-ethynyl-7-fluoronaphthalen-1-yl)-1-fluoro-5a,6,7,8,9,10-hexahydro-5H-4-oxa-3,10a,11,13,14-pentaaza-6,9-methanonaphtho[1,8-ab]heptalen-12-yl)oxy)methyl)hexahydro-1H-pyrrolizin-3-yl)methyl morpholine-4-carboxylate]",105 nM
7,"C#Cc1c(F)ccc2cccc(-c3nc4c5c(nc(OCC6(CN7C8CCC7COC8)CC6)nc5c3F)N3CC5CCC(N5)[C@H]3CO4)c12 (stereo in doubt) [Compound 49, (5aS,6R,9S)-12-((1-((3-oxa-8-azabicyclo[3.2.1]octan-8-yl)methyl)cyclopropyl)methoxy)-2-(8-ethynyl-7-fluoronaphthalen-1-yl)-1-fluoro-5a,6,7,8,9,10-hexahydro-5H-4-oxa-3,10a,11,13,14-pentaaza-6,9-methanonaphtho[1,8-ab]heptalene]",851 nM
8,"Cc1cc(N)nc(-c2nc3c4c(nc(OC[C@@]56CCCN5C[C@H](F)C6)nc4c2F)N2CC4CCC(N4)[C@H]2CO3)c1C(F)(F)F (stereo in doubt) [Compound 53, 6-((5aS,6R,9S)-1-fluoro-12-(((2R,7aS)-2-fluorotetrahydro-1H-pyrrolizin-7a(5H)-yl)methoxy)-5a,6,7,8,9,10-hexahydro-5H-4-oxa-3,10a,11,13,14-pentaaza-6,9-methanonaphtho[1,8-ab]heptalen-2-yl)-4-methyl-5-(trifluoromethyl) pyridin-2-amine]",457 nM
9,"Oc1cc(-c2nc3c4c(nc(OC[C@@]56CCCN5C[C@H](F)C6)nc4c2F)N2C[C@@H]4CC[C@@H](N4)C2CO3)c2c(Cl)cccc2c1 (stereo partly drawn) [Compound 1, 5-Chloro-4-((6R,9S)-1-fluoro-12-(((2R,7aS)-2-fluorotetrahydro-1H-pyrrolizin-7a(5H)-yl)methoxy)-5a,6,7,8,9,10-hexahydro-5H-4-oxa-3,10a,11,13,14-pentaaza-6,9-methanonaphtho[1,8-ab]heptalen-2-yl)naphthalen-2-ol]",33 nM
10,"Oc1cc(-c2nc3c4c(nc(OCC56CCCN5CCC6)nc4c2F)N2C[C@@H]4CC[C@@H](N4)C2CO3)c2c(Cl)cccc2c1 (stereo partly drawn) [Compound 2, 5-chloro-4-((6R,9S)-1-fluoro-12-((tetrahydro-1H-pyrrolizin-7a(5H)-yl)methoxy)-5a,6,7,8,9,10-hexahydro-5H-4-oxa-3,10a,11,13,14-pentaaza-6,9-methanonaphtho[1,8-ab]heptalen-2-yl)naphthalen-2-ol]",730 nM
11,"Oc1cc(-c2nc3c4c(nc(OC[C@@]56CCCN5C[C@H](F)C6)nc4c2F)N2C[C@@H]4CC[C@@H](N4)C2CO3)c2cc(F)ccc2c1 (stereo partly drawn) [Compound 3, 6-fluoro-4-((6R,9S)-1-fluoro-12-(((2R,7aS)-2-fluorotetrahydro-1H-pyrrolizin-7a(5H)-yl)methoxy)-5a,6,7,8,9,10-hexahydro-5H-4-oxa-3,10a,11,13,14-pentaaza-6,9-methanonaphtho[1,8-ab]heptalen-2-yl)naphthalen-2-ol]",26 nM
12,"CCc1c(F)ccc2cccc(-c3nc4c5c(nc(OC[C@@]67CCCN6C[C@H](F)C7)nc5c3F)N3C[C@@H]5CC[C@@H](N5)C3CO4)c12 (stereo partly drawn) [Compound 4, (6R,9S)-2-(8-ethyl-7-fluoronaphthalen-1-yl)-1-fluoro-12-(((2R,7aS)-2-fluorotetrahydro-1H-pyrrolizin-7a(5H)-yl)methoxy)-5a,6,7,8,9,10-hexahydro-5H-4-oxa-3,10a,11,13,14-pentaaza-6,9-methanonaphtho[1,8-ab]heptalene]",121 nM
13,"C#Cc1cccc2cc(O)cc(-c3nc4c5c(nc(OC[C@@]67CCCN6C[C@H](F)C7)nc5c3F)N3C[C@@H]5CC[C@@H](N5)C3CO4)c12 (stereo partly drawn) [Compound 5, 5-ethynyl-4-((6R,9S)-1-fluoro-12-(((2R,7aS)-2-fluorotetrahydro-1H-pyrrolizin-7a(5H)-yl)methoxy)-5a,6,7,8,9,10-hexahydro-5H-4-oxa-3,10a,11,13,14-pentaaza-6,9-methanonaphtho[1,8-ab]heptalen-2-yl)naphthalen-2-ol]",77 nM
14,"Oc1cc(-c2nc3c4c(nc(OC[C@@]56CCCN5C[C@H](F)C6)nc4c2F)N2C[C@@H]4CC[C@@H](N4)C2CO3)c2c(F)cccc2c1 (stereo partly drawn) [Compound 6, 5-fluoro-4-((6R,9S)-1-fluoro-12-(((2R,7aS)-2-fluorotetrahydro-1H-pyrrolizin-7a(5H)-yl)methoxy)-5a,6,7,8,9,10-hexahydro-5H-4-oxa-3,10a,11,13,14-pentaaza-6,9-methanonaphtho[1,8-ab]heptalen-2-yl)naphthalen-2-ol]",86 nM
15,"C#Cc1c(F)ccc2cc(O)cc(-c3nc4c5c(nc(OC[C@@]67CCCN6C[C@H](F)C7)nc5c3F)N3C[C@@H]5CC[C@@H](N5)C3CO4)c12 (stereo partly drawn) [Compound 7, 5-ethynyl-6-fluoro-4-((6R,9S)-1-fluoro-12-(((2R,7aS)-2-fluorotetrahydro-1H-pyrrolizin-7a(5H)-yl)methoxy)-5a,6,7,8,9,10-hexahydro-5H-4-oxa-3,10a,11,13,14-pentaaza-6,9-methanonaphtho[1,8-ab]heptalen-2-yl)naphthalen-2-ol]",34 nM
16,"C#Cc1c(F)ccc2cccc(-c3nc4c5c(nc(OC[C@@]67CCCN6C[C@H](F)C7)nc5c3F)N3CC5CCC(N5)C3CO4)c12 (stereo partly drawn) [Compound 8, (6R,9S)-2-(8-ethynyl-7-fluoronaphthalen-1-yl)-1-fluoro-12-(((2R,7aS)-2-fluorotetrahydro-1H-pyrrolizin-7a(5H)-yl)methoxy)-5a,6,7,8,9,10-hexahydro-5H-4-oxa-3,10a,11,13,14-pentaaza-6,9-methanonaphtho[1,8-ab]heptalene]",9 nM

# Same assay, conditions: read-out: p-ERK IC50; PNAC-1/HPAC cell, 3 hours compound incubation
row,SMILES,IC50
1,"C#Cc1c(F)ccc2cccc(-c3nc4c5c(nc(OCC67CCCN6C(COC(=O)N(C)C)CC7)nc5c3F)N3CC5CCC(N5)[C@H]3CO4)c12 (stereo in doubt) [Compound 38, (7a-((((5aS,6R,9S)-2-(8-ethynyl-7-fluoronaphthalen-1-yl)-1-fluoro-5a,6,7,8,9,10-hexahydro-5H-4-oxa-3,10a,11,13,14-pentaaza-6,9-methanonaphtho[1,8-ab]heptalen-12-yl)oxy)methyl)hexahydro-1H-pyrrolizin-3-yl)methyl dimethylcarbamate]",70 nM

# From patent US20240376123A1, “KRAS G12D INHIBITORS AND USES THEREOF” (SUZHOU ZANRONG PHARMA LIMITED, priority 2021, published 2024)
